Among the data in US12351564B2, “NLRP3 modulators” (Zomagen Biosciences Ltd, priority 2019, dated 2025) are IC50 values, retold here.

Some results are limits rather than exact numbers.

By IC50 is commonly meant the concentration needed to halve the response being measured. Low values mean greater potency in that assay, high ones weaker potency in that assay.

The test system of the assay is IL-1b. Kind of assay: Mouse BMDM IL-1b Assay. It is filed as cell-based. Particulars: Macrophage; C57BL6 bone marrow derived macrophages; 200 ng/mL Ultrapure LPS-B5 3 hours, compound 30 minutes, 5 mM ATP 45 minutes; mouse IL-1b ELISA of supernatant. As to the method:
Example 8: Mouse BMDM IL-1b Assay
Mouse bone marrow cells from C57BL6 tibia and femur were culture in complete Isocov's Media supplemented with 20 ng/mL MCSF (BMDM media) at a density of 50 million cells/15 cm Petri dish. Fresh media was changed every 3 days, and bone marrow derived macrophages were collected, washed, and counted on day 7. Cells were seeded into 96 well plates at a density of 5×10^4 cells per well in 100 uL of BMDM media and cultured overnight. The cells were stimulated at 37° C. with 200 ng/mL Ultrapure LPS-B5 for 3 hours before pre-diluted compounds were added. 30 minutes after compound addition, 5 mM ATP was added for the secondary stimulation for 45 minutes. After stimulation, the plates were briefly spun down, and 50 uL of supernatant was harvested from each well. ELISA for mouse IL-1b was performed with 1:10 and 1:100 diluted supernatant using pre-coated kits. IL-1b concentrations were calculated based on pre-titrated standards, and compound inhibition IC50 is generated using the Levenberg Marquardt damped lease-square method.
(In an ELISA, binding on a coated surface is turned into a signal by an enzyme label.)
As to `CC(C)c1cccc(C(C)C)c1NC(=O)NS(=O)(=O)c1cc2c(o1)C1CCC(C1)C2(C)O` (centres unmarked) [Compound 27, N((2,6-diisopropylphenyl)carbamoyl)-4-hydroxy-4-methyl-5,6,7,8-tetrahydro-4H-5,8-methanocyclohepta[b]furan-2-sulfonamide], the IC50 is < 100 nM. On to `CC1(O)c2cc(S(=O)(=O)NC(=O)Nc3c4c(cc5c3CCC5)CCC4)oc2C2CCC1CC2` (centres unmarked) [Compound 21, N-((1,2,3,5,6,7-hexahydro-s-indacen-4-yl)carbamoyl)-4-hydroxy-4-methyl-5,6,7,8-tetrahydro-4H-5,8-ethanocyclohepta[b]furan-2-sulfonamide], for which the IC50 is < 100 nM.

As for `O=C(Nc1c2c(cc3c1CCC3)CCC2)NS(=O)(=O)c1cc2c(o1)C1CCC(CC1)C2=NO` [Compound 24, N-((1,2,3,5,6,7-hexahydro-s-indacen-4-yl)carbamoyl)-4-(hydroxyimino)-5,6,7,8-tetrahydro-4H-5,8-ethanocyclohepta[b]furan-2-sulfonamide], the IC50 is < 100 nM.

For `CC(C)c1ccc(Cl)c(C(C)C)c1NC(=O)NS(=O)(=O)c1cc2c(o1)C1CCC(C1)C2(C)O` (centres unmarked) [Compound 26, N-((3-chloro-2,6-diisopropylphenyl)carbamoyl)-4-hydroxy-4-methyl-5,6,7,8-tetrahydro-4H-5,8-methanocyclohepta[b]furan-2-sulfonamide], the IC50 fell in the range of 100 to 1000 nM. The figure for `O=C(Nc1c2c(cc3c1CCC3)CCC2)NS(=O)(=O)c1cc2c(o1)C1CCC(CC1)C2O` (centres unmarked) [Compound 22, N-((1,2,3,5,6,7-hexahydro-s-indacen-4-yl)carbamoyl)-4-hydroxy-5,6,7,8-tetrahydro-4H-5,8-ethanocyclohepta[b]furan-2-sulfonamide] is < 100 nM; for `O=C(Nc1c2c(cc3c1CCC3)CCC2)NS(=O)(=O)c1cc2c(o1)C1CCC(C1)C2O` (centres unmarked) [Compound 9, N-((1,2,3,5,6,7-hexahydro-s-indacen-4-yl)carbamoyl)-4-hydroxy-5,6,7,8-tetrahydro-4H-5,8-methanocyclohepta[b]furan-2-sulfonamide] it is < 100 nM; for `CC1(O)c2cc(S(=O)(=O)NC(=O)Nc3c4c(cc5c3CCC5)CCC4)ccc2C2CCC1CC2` (centres unmarked) [Compound 34, N-((1,2,3,5,6,7-hexahydro-s-indacen-4-yl)carbamoyl)-9-hydroxy-9-methyl-6,7,8,9-tetrahydro-5H-5,8-ethanobenzo[7]annulene-2-sulfonamide] it is 100 to 1000 nM. The figure for `O=C(Nc1c2c(cc3c1CCC3)CCC2)NS(=O)(=O)c1cc2c(o1)C1CCC(C1)C2=O` (centres unmarked) [Compound 7, N-((1,2,3,5,6,7-hexahydro-s-indacen-4-yl)carbamoyl)-4-oxo-5,6,7,8-tetrahydro-4H-5,8-methanocyclohepta[b]furan-2-sulfonamide] is < 100 nM; for `O=C(Nc1c2c(cc3c1CCC3)CCC2)NS(=O)(=O)c1ccc2c(c1)/C(=N\O)C1CCC2CC1` [Compound 35, (Z)-N-((1,2,3,5,6,7-hexahydro-s-indacen-4-yl)carbamoyl)-9-(hydroxyimino)-6,7,8,9-tetrahydro-5H-5,8-ethanobenzo[7]annulene-2-sulfonamide] it is 100 to 1000 nM. Next, `CC1(O)c2cc(S(=O)(=O)NC(=O)Nc3c4c(c(Br)c5c3CCC5)CCC4)oc2C2CCC1C2` (centres unmarked) [Compound 18, N-((8-bromo-1,2,3,5,6,7-hexahydro-s-indacen-4-yl)carbamoyl)-4-hydroxy-4-methyl-5,6,7,8-tetrahydro-4H-5,8-methanocyclohepta[b]furan-2-sulfonamide]: < 100 nM; `CC(C)c1cc(Cl)cc(C(C)C)c1NC(=O)NS(=O)(=O)c1cc2c(o1)C1CCC(C1)C2(C)O` (centres unmarked) [Compound 29, N-((4-chloro-2,6-diisopropylphenyl)carbamoyl)-4-hydroxy-4-methyl-5,6,7,8-tetrahydro-4H-5,8-methanocyclohepta[b]furan-2-sulfonamide]: 100 to 1000 nM.
